Legend:
MIA PaCa-2 cells = assay: Apoptosis, Cell Death Detection ELISA (cytoplasmic histone-associated DNA fragments); type: cell-based, human; settings: MIA PaCa-2, PA 0–30 μM, 24 h, relative to vehicle-treated cells (=1)
Description: (§1) Apoptosis induction in PA-treated cells was assessed by quantitation of cytoplasmic histone-associated DNA fragments and western blotting for PARP cleavage (c-PARP). The Cell Death Detection ELISA^PLUS Kit (Roche, Indianapolis, IN) was used to detect the amount of cytoplasmic histone-associated DNA fragments according to the manufacturer’s instructions and expressed relative to vehicle-treated cells (set equal to 1).

PANC-1 cells = assay: as above; type: cell-based, human; settings: PANC-1, PA 0–30 μM, 24 h, relative to vehicle-treated cells (=1)
Description: as §1

[1] = tested on: PARP cleavage (c-PARP) in MIA PaCa-2 cells; assay: Western blot for PARP cleavage (c-PARP); type: cell-based, human; settings: MIA PaCa-2, PA 0–30 μM, 24 h
Description: as §1
(§2) PANC-1, MIA PaCa-2 cells were treated with PA (0–30 μM) for 10 min, 30 min or 24 h, respectively. Whole protein extracts isolated from cells and tumor tissues were prepared and western blot analysis with anti-cleaved PARP, anti-XBP-1s, anti-ATF6, anti-ATF4, anti-Hsp70, anti-CHOP, anti-phospho-eIF2α or anti-eIF2α antibodies were performed as previously described. Western blots were quantified with HP-Scanjet 550c and analyzed by UN-SCAN-IT software (Silk Scientific, Orem, UT). Three independent experiments were done for all the immunoblot studies and quantitative data composed of all the experiments with statistical analysis were added below the representative blot image.

[2] = tested on: PARP cleavage (c-PARP) in PANC-1 cells; assay: Western blot for PARP cleavage (c-PARP); type: cell-based, human; settings: PANC-1, PA 0–30 μM, 24 h
Description: as §1, §2

[3] = tested on: ER stress response proteins in MIA PaCa-2 cells; assay: Western blot of ER stress response proteins; type: cell-based, human
Description: as §2

[4] = tested on: ER stress response proteins in PANC-1 cells; assay: Western blot of ER stress response proteins; type: cell-based, human
Description: as §2

[5] = tested on: MIA PaCa-2 tumor xenograft; assay: Apoptosis measurement in tumor xenograft (apoptotic bodies, H&E); type: in vivo, female nude mice
Description: All formalin-fixed tumors were embedded in paraffin within 48 h and five-micrometer sections were stained with hematoxylin and eosin (H&E). The slides were viewed under a Leica microscope (Leica Instruments, Melville, NY) and apoptosis in the viable tumor cell area was quantified by counting apoptotic bodies in four 20 x fields of view for n = 6–12 tumors per group by 2 independent observers.

[6] = Toxicology studies in vivo; design: species or system female nude mice; settings: for ALP: mean ± SD (n = 10–13), control 60 ± 19; for Albumin: control 1.5 ± 0.2; for AST: control 625 ± 367
Description: Toxicity of PA was evaluated in the 6 weeks old female nude mice (Harlan, Indianapolis, IN). The mice were acclimatized for 1 week and treated with PA (0, 25 or 50 mg kg^-1 of body weight, n = 15 per group) by i.p. 3 times per week for additional 5 weeks. The body weight was evaluated 3 times per week. At the end of the experiment, animals were euthanized by CO2 inhalation. Blood was collected and a gross pathology examination performed. Liver, spleen, kidney, lung and heart were harvested, fixed in 10% neutral-buffered formalin at 4°C for 24 h followed tissue processing overnight and then embedded in paraffin. Five-micrometer sections were stained with H&E. The levels of alkaline phosphatase (ALP), alanine aminotransferase (ALT), aspartate aminotransferase (AST), albumin and total protein were determined at the IU Health Pathology Laboratory (Indianapolis, IN).

[7] = tested on: HSPA6 and CHOP in MIA PaCa-2 tumor tissues; assay: Quantitative RT-PCR of tumor tissues; type: in vivo, female nude mice; settings: 25 mg kg^-1, vs controls
Description: The quantitative real-time polymerase chain reaction (qRT-PCR) was performed using ABI PRISM 7900HT Fast Real-Time PCR System (Applied Biosystems, Foster City, CA) according to the manufacturer's instructions. Total RNA was isolated from tumors with RNeasy Mini Kit (Qiagen, Valencia, CA). RNA quality was monitored and quantified using the Qubit 2.0 Fluorometer (Invitrogen, Carlsbad, CA). The RNA samples were reverse transcribed into cDNA using High Capacity cDNA Reverse Transcription Kit (Applied Biosystems, Foster City, CA). The cDNA (100 ng per sample) was subjected to qPCR analysis in triplicate. Analysis of the relative quantity gene expression (RQ) of HSPA6 and CHOP was normalized by ACTB expression and was performed using the 2^-ΔΔCt method.

[8] = tested on: ATF4 and CHOP in MIA PaCa-2 tumor tissues; assay: Western blot of tumor tissues; type: in vivo, female nude mice; settings: 25 mg kg^-1, vs controls
Description: as §2

PANC-1 = tested on: PANC-1; design: method as in PMID 23588713; settings: PANC-1, 24 h; read-out: IC50-24 h, inhibition of proliferation; cited from earlier work
MIA PaCa-2 = tested on: MIA PaCa-2; design: method as in PMID 23588713; settings: MIA PaCa-2, 24 h; read-out: IC50-24 h, inhibition of proliferation; cited from earlier work

Compound: C=C(CC[C@@H](C(=O)O)[C@H]1[C@H](O)C[C@@]2(C)C3=C(CC[C@]12C)[C@@]1(C)CC[C@H](OC(C)=O)C(C)(C)[C@@H]1CC3)C(C)C [PA, Pachymic acid]
- PA-induced apoptosis vs control (MIA PaCa-2 cells): ~8 fold
- PA-induced apoptosis vs control (PANC-1 cells): ~19 fold
- Increase in expression of PARP cleavage vs vehicle-treated control [1]: ~4 fold
- Increase in expression of PARP cleavage vs vehicle-treated control [2]: approximately 3 fold
- PA-phosphorylated eIF2α vs control ([3]; MIA PaCa-2, 30 μM PA, 10 min): ~3 fold
- Activation of XBP1 and ATF4 (protein level) ([3]; MIA PaCa-2, PA 0–30 μM, 24 h): significantly activated
- PA-phosphorylated eIF2α vs control ([4]; PANC-1, 30 μM PA, 10 min): ~2 fold
- Activation of XBP1 and ATF4 (protein level) ([4]; PANC-1, PA 0–30 μM, 24 h): significantly activated
- Increase of apoptotic bodies in tumors vs control ([5]; 25 mg kg^-1): approximately 59%
- Increase of apoptotic bodies in tumors vs control ([5]; 50 mg kg^-1): ~2 fold
- Liver enzyme profiles (ALP, ALT, AST, albumin, total protein) ([6]; 25 mg kg^-1): not markedly altered
- Organ pathology by H&E (liver, kidney, spleen, lung, heart) ([6]; 25 mg kg^-1): did not demonstrate any abnormalities
- ALP ([6]; 25 mg kg^-1, serum): 62 ± 9 IU L^-1
- Albumin ([6]; 25 mg kg^-1, serum, mean ± SD): 1.6 ± 0.1 g/dL
- T Protein ([6]; 25 mg kg^-1, serum, mean ± SD, control 4.1 ± 0.5): 4.5 ± 0.2 g/dL
- ALT ([6]; 25 mg kg^-1, serum, mean ± SD, control 123 ± 88): 194 ± 193 IU L^-1
- AST ([6]; 25 mg kg^-1, serum, mean ± SD): 531 ± 296 IU L^-1
- Clinical signs ([6]; 50 mg kg^-1): several signs of discomfort and impaired movement
- Organ pathology by H&E (liver, kidney, spleen, lung, heart) ([6]; 50 mg kg^-1): obvious pathological changes in liver, kidney and spleen tissues
- ALP ([6]; 50 mg kg^-1, serum): 59 ± 11 IU L^-1
- Albumin ([6]; 50 mg kg^-1, serum, mean ± SD): 1.6 ± 0.1 g/dL
- AST ([6]; 50 mg kg^-1, serum, mean ± SD): 1431 ± 997 IU L^-1
- Body weight, treatment groups vs control ([6]; 25 and 50 mg kg^-1 i.p. 3 times per week, 5 weeks): no significant differences
- Significant increase of HSPA6 and CHOP/GADD153 mRNA in tumors [7]: not observed
- Expression of ATF4 and CHOP proteins in tumors [8]: significant increase
- IC50 (PANC-1): 23.5 µM
- IC50 (MIA PaCa-2): 26.6 µM
